This note sets out measurements from US20230340018A1, “MPRO CYSTEINE PROTEASE INHIBITORS” (ANIXA BIOSCIENCES, INC., priority 2020, published 2023).

One series in a line: in vitro. As to conditions: human.
Series [1] addresses SARS-CoV-2 main protease Mpro (Severe acute respiratory syndrome coronavirus 2, UniProt P0DTD1). In words: FRET-based Mpro enzyme activity assay. It is filed as biochemical. The following applies: recombinant Mpro, 30 min pre-incubation, 0 - 200 µM; read-out: Mpro enzyme inhibition IC50.

In turn, `CC(C)C[C@H](NC(=O)OC(C)(C)C)C(=O)N[C@@H](Cc1ccc[nH]c1=O)C(=O)C(=O)NCc1ccccc1` [Compound 27, tert-butyl ((S)-1-(((S)-4-(benzylamino)-3,4-dioxo-1-(2-oxo-1,2-dihydropyridin-3-yl)butan-2-yl)amino)-4-methyl-1-oxopentan-2-yl)carbamate] showed a CC50 at 72 h in “in vitro” of over 100 µM. Further, in series [1], the IC50 was 2000 to 20000 nM.
With `CC(C)C[C@H](NC(=O)c1cc2ccccc2[nH]1)C(=O)N[C@@H](Cc1ccc[nH]c1=O)C(=O)C(=O)NCc1ccccc1` [Compound 22, N-((S)-1-(((S)-4-(Benzylamino)-3,4-Dioxo-1-(2-Oxo-1,2-Dihydropyridin-3-yl)Butan-2-yl)Amino)-4-Methyl-1-Oxopentan-2-yl)-1H-Indole-2-Carboxamide], the CC50 at 72 h in the series “in vitro” is over 100 µM. The IC50 in series [1] was at most 2000 nM.
In the case of `CC(C)C[C@H](NC(=O)c1cc2ccccc2[nH]1)C(=O)N[C@@H](CN1CCNC1=O)C(O)C(=O)NCC1CC1` (stereo partly drawn) [Compound 26, N-((2S)-1-(((2S)-4-((cyclopropylmethyl)amino)-3-hydroxy-4-oxo-1-(2-oxoimidazolidin-1-yl)butan-2-yl)amino)-4-methyl-1-oxopentan-2-yl)-1H-indole-2-carboxamide], the CC50 at 72 h in the series “in vitro” was over 100 µM. Besides, the IC50 in series [1] is at most 2000 nM.
In “in vitro”, `CC(C)C[C@H](NC(=O)c1nc2ccccc2[nH]1)C(=O)N[C@@H](Cc1ccc[nH]c1=O)C(=O)C(=O)NCc1ccccc1` [Compound 23, N-((S)-1-(((S)-4-(benzylamino)-3,4-dioxo-1-(2-oxo-1,2-dihydropyridin-3-yl)butan-2-yl)amino)-4-methyl-1-oxopentan-2-yl)-1H-benzo[d]imidazole-2-carboxamide] showed a CC50 at 72 h of over 100 µM. Moreover, the IC50 in series [1] was at most 2000 nM.
The compound `CC(C)C[C@H](NC(=O)c1cc2ccccc2[nH]1)C(=O)N[C@@H](CN1CCNC1=O)C(=O)C(=O)NCC1CC1` [Compound 24, N-((S)-1-(((S)-4-((cyclopropylmethyl)amino)-3,4-dioxo-1-(2-oxoimidazolidin-1-yl)butan-2-yl)amino)-4-methyl-1-oxopentan-2-yl)-1H-indole-2-carboxamide] had a CC50 at 72 h in the series “in vitro” of over 100 µM. The IC50 in series [1] is 2000 to 20000 nM.
Consider `COc1cccc2[nH]c(C(=O)N[C@H](C(=O)N[C@@H](CN3CCNC3=O)C(=O)C(=O)Nc3ccccc3)C3CCCCC3)cc12` [Compound 25, N-((S)-1-cyclohexyl-2-(((S)-3,4-dioxo-1-(2-oxoimidazolidin-1-yl)-4-(phenylamino)butan-2-yl)amino)-2-oxoethyl)-4-methoxy-1H-indole-2-carboxamide], for which, in the series “in vitro”, the CC50 at 72 h was over 100 µM. In addition, the IC50 in series [1] was at most 2000 nM.
On the same counts, the results for `COc1cccc2[nH]c(C(=O)N[C@@H](CC3CC3)C(=O)N[C@@H](CN3CCNC3=O)C(=O)C(=O)NCC3CC3)cc12` [Compound 12, N-((S)-3-Cyclopropyl-1-(((S)-4-((cyclopropylmethyl)amino)-3,4-dioxo-1-(2-oxoimidazolidin-1-yl)butan-2-yl)amino)-1-oxopropan-2-yl)-4-methoxy-1H-indole-2-carboxamide] are over 100 µM and at most 2000 nM.
On to `COc1cccc2[nH]c(C(=O)N[C@@H](CC(C)C)C(=O)N[C@@H](CN3CCNC3=O)C(=O)C(=O)NCC3CC3)cc12` [Compound 10, N-((S)-1-(((S)-4-((Cyclopropylmethyl)Amino)-3,4-Dioxo-1-(2-Oxoimidazolidin-1-yl)Butan-2-yl)Amino)-4-Methyl-1-Oxopentan-2-yl)-4-Methoxy-1H-Indole-2-Carboxamide], for which the CC50 at 72 h in the series “in vitro” was over 100 µM. The IC50 in series [1] was at most 2000 nM.

Usually IC50 stands for the concentration needed to halve the response being measured.
